One data set concerns primary AML BMMNC. Put plainly: Ex vivo combination treatment of primary AML BMMNC (FACS, imaging, qPCR). It is filed as cell-based, human. The settings on record: primary BMMNC ex vivo (Patient #2 and #3); 80 nM GILT, 50 uM CXCR2-I. Here is the method:
(§1) Whether targeting the MIF-CXCR2 signaling pathway would effectively treat AML blasts were investigated. First, the combination of GILT with ribosomal protein S19 (RPS19) on MV4-11 blasts was tested in vitro. RPS19, a MIF inhibitor, has been reported to suppress cisplatin-activated MIF-CD74-NFκB signaling pathway in acute kidney injury. […] The combination of 80 nM GILT with 50 uM SB225002, a CXCR2-inhibitor (CXCR2-I) on MV4-11 blasts in vitro were examined. […] The anti-leukemic effect of combining GILT with CXCR2-I on primary BMMNC ex vivo were examined. […] There may be alternative cytokine pathways compensating for the defect of MIF-CXCR2 pathways.
The combination of 80 nM GILT and 50 uM BAY11-7821 (a NFκB-I) was tested as a novel therapeutic approach for AML.
Next, the anti-leukemic effect of the combination was examined on primary BMMNC from refractory AML patients (Patient #7, Table 4).
Human Samples. AML bone marrow (BM) mononuclear cells (BMMNC) (Patients #1-7, Table 4) were obtained from the City of Hope National Medical Center (COHNMC). All donor patients signed an informed consent form. Sample acquisition was approved by the Institutional Review Boards at the LLUMC and the COHNMC in accordance with an assurance filed with and approved by the Department of Health and Human Services, and it met all requirements of the Declaration of Helsinki.
(§2) For MIF in vitro experiments, different doses of MIF were added to 1 ml of 1×10^6 MV4-11 cells or RAW264.7 cells for each experimental group in 24-well plates. Two days after the one dose treatment, cells were then collected for either analyses by FACS and qPCR. As combination agents to treat blasts in vitro or ex vivo, one dose of 80 nM GILT with one dose of different inhibitors were added to 1 ml of 1×10^6 MV4-11 cells or 1 ml of 0.5-1×10^6 primary AML BMMNC for each experimental group in 24-well plates. Dose-dependent experiments of CXCR2 inhibitor and NFκB inhibitor with or without 80 nM GILT were performed. […] Three days after the one dose treatment, cells were then collected for either analyses by FACS and qPCR.
(§3) Flow Cytometry (FACS). Cells were harvested and examined for the expression of cell surface biomarkers (CD) and intracellular proteins by multichromatic FACS as previously described. About 1×10^4˜10^6 cells in 100 μl FACS buffer (PBS containing 1% FBS and 0.05% sodium azide) were stained with various fluorescence-conjugated antibodies specific for the desired cell surface proteins at 4° C. for 30 min. The surface-stained cells were then fixed and permeabilized using the appropriate reagents (e.g. the BD Pharmingen Cytofix/Cytoperm buffer) and stained with different fluorescence-conjugated antibodies specific for the desired intracellular proteins at 4° C. for 2 hours in the permeabilizing buffer (e.g. the BD Perm/Wash buffer). Concentrations of the Abs were used per the manufacturers' recommendations. Finally, the cells were washed twice in the permeabilizing buffer and twice in the FACS buffer before being analyzed on the BD FACSAria II. Data was analyzed using the FlowJo software (Tree Star Inc., Ashland, OR).
RNA Isolation and Real-Time Polymerase Chain Reaction (qPCR) analysis. MV4-11 and MOLM-14 cells were cultured with the presence of TKI drugs for 72 hours or re-plated 28 days after the treatment of TKI drugs. Cells were isolated for RNA isolation and qPCR analysis as previously described. Total RNA was isolated using the RNeasy Micro Kit (Qiagen) according to the manufacturer's instruction. First-strand cDNA was synthesized using the SuperScript III Reverse Transcriptase (Invitrogen; Life Technologies). With an Applied Biosystems 7900HT Real-Time PCR machine, qPCR was performed and analyzed using known primers for the specific markers. The PCR conditions were 10 minutes at 95° C. followed by 40 cycles of 10 seconds at 95° C. and 15 seconds at 60° C. The relative expression level of a gene was determined using the ΔΔCt method and normalized to GAPDH.
In general terms: Real-time PCR tracks product formation cycle by cycle.

The next data set deals with MV4-11 blasts. Put plainly: GILT combined with MIF inhibitor or CXCR2 inhibitor on MV4-11 blasts in vitro (FACS). In kind it is cell-based, human. Here is the method: as §1, §2, §3
For the next data set, the system named is MV4-11. The settings on record: 100 nM; cited from earlier work.
The test system of a further data set is MV4-11 cells. Put plainly: FACS time course of CD44+pBAD+ and Ki67+CD33+CD44+ populations in TKI-treated MV4-11. It is filed as cell-based, human.
Description: To follow the cell fate of TKI-treated MV4-11 and MOLM-14, culturing of blasts were continued by performing medium change every 2-3 days. […] The BAD protein is a pro-apoptotic member of the BCL-2 gene family, which is involved in initiating apoptosis. Dephosphorylated BAD is pro-apoptotic by binding BCL-2 and inactivating BCL-2, while phosphorylated BAD (pBAD) is anti-apoptotic by leaving BCL-2 free to inhibit BAX-triggered apoptosis.
Small Molecular Inhibitors and in vitro & ex vivo Treatment. […] The dose of 80 nM for the four TKIs was selected based on their dose-dependent cytotoxicity in previous reports. […] Both GILT and QUIZ were reported to start to suppress the tumorigenic clustering and c-Kit at the dose of 80 nM. […] The combination of 5 μM 5-Azacitidine (AZA) and 80 nM 1α,25-Dihydroxyvitamin D3 (VD3) was added to the experimental group similar to the previous report. As combination agents to treat blasts in vitro, one dose of 80 nM GILT with one dose of either 100 nM Venetoclax (BCL2 inhibitor), 10 μM (R)-Lisofylline (STAT4 inhibitor), 100 nM AZD1208 (PIM inhibitor), 500 nM PF-06826647 (TYK2 inhibitor), or 500 nM AT9283 (JAK2/3 inhibitor) were added to 1 ml of 1×10^6 cells for each experimental group in 24 well plates. Three days after the one dose treatment, cells were then collected for either analyses by FACS and qPCR, or re-plated into 24 well plates for continued culture. At different time points, re-plated cells were collected for analyses by FACS and qPCR. Medium change was performed every 2-3 days.
as §3

The mark [1] stands for this setting: MV4-11, 10 days after TKI treatment.
The mark [2] stands for this setting: MV4-11, 20 days after TKI treatment.
The mark [3] stands for this setting: MV4-11, 28 days after TKI treatment.

Take `O=C(Nc1ccc([N+](=O)[O-])cc1O)Nc1ccccc1Br` [CXCR2-I, SB225002]: in the data set with primary AML BMMNC, the “percentage of Ki67+CD13+ blasts” value was determined as 14.3% and the “percentage of viable CD33+CD13+ primary blasts” value is reported as 3.11%. In the data set on MV4-11 blasts (MV4-11, 80 nM GILT, 50 uM SB225002, 3 days), the “percentage of Ki67+CD44+ blasts” value was determined as 5.7%. Further, the “most effective dose on MV4-11 based on the FACS analyses” value in the data set on MV4-11 blasts (dose-dependent experiments with or without 80 nM GILT) stood at 50 µM.

Take `CO[C@@H]1[C@H](N(C)C(=O)c2ccccc2)C[C@H]2O[C@]1(C)n1c3ccccc3c3c4c(c5c6ccccc6n2c5c31)C(=O)NC4` [MIDO, Midostaurin]: in the data set on MV4-11, the “reduction of viable MV4-11” value is listed as 60%. Moreover, the “population of viable CD44+pBAD+ cells” value with MV4-11 cells (setting [1]) is recorded as 0.2%; with MV4-11 cells (setting [2]) it was 0.43%; in the data set on MV4-11 cells (setting [3]) it was 1.23%. Moreover, the entries for the “population of viable Ki67+CD33+CD44+ cells” value with MV4-11 cells (setting [1]), in the data set on MV4-11 cells (setting [2]) and in the data set on MV4-11 cells (setting [3]) were 2.54%, 1.41% and 2.54%, respectively.

The record behind these values is patent US20250123282A1, “METHODS FOR EVALUATION AND TREATMENT OF TYROSINE KINASE INHIBITOR (TKI)-RESISTANT ACUTE MYELOID LEUKEMIA” (LOMA LINDA UNIVERSITY, priority 2021, published 2025).
